Results from patent US7749528B2, “Implantable and sealable medical device for unidirectional delivery of therapeutic agents to tissues” (priority 2001, dated 2010).

Experiments:
[1] = administered locally; cited from earlier work
[2] = cited from earlier work
[3] = cited from earlier work; remark: listed apart in the source
[4] = Phase I study of the toxicity of local carboplatin; type: in vivo; settings: following 6 local injections of carboplatin
Description: Protection Against Local Orbital or Periocular Toxicity: The periocular delivery of therapeutic agents is employed when increased amounts of the agent are needed inside the eye. In the case of advanced intraocular retinoblastoma, tumor cells in the vitreous gel are not exposed to sufficient amounts of the chemotherapeutic agents. For this reason, local periocular carboplatin is added to the regimen of systemic chemotherapy for advanced disease. […] Mulvihill et al. reported the complications associated with periocular injections of the chemotherapeutic agent carboplatin in infants with retinoblastoma. This emphasizes the need of a sealed system for unidirectional delivery of toxic agents to the eye.

COc1cc([C@@H]2c3cc4c(cc3[C@@H](O[C@@H]3O[C@@H]5CO[C@@H](C)O[C@H]5[C@H](O)[C@H]3O)[C@H]3COC(=O)[C@H]23)OCO4)cc(OC)c1O [Etoposide]
local toxicity [1]: extremely toxic when administered locally

CO[C@@H]1[C@H](N(C)C(=O)c2ccccc2)C[C@H]2O[C@]1(C)n1c3ccccc3c3c4c(c5c6ccccc6n2c5c31)C(=O)NC4 [PKC412]
side effects when administered orally ([2]; administered orally): nausea and diarrhea | toxicity by the periocular route ([2]; periocular route, simple injections): ocular irritation and toxicity was observed

N.N.O=C([O-])C1(C(=O)[O-])CCC1.[Pt+2] [carboplatin]
local tissue tolerance ([3]; bolus injected into the periocular space): well tolerated by the local tissue | complications after periocular injection ([3]; periocular injections, after a certain period following the injection): ocular motility problems, including restriction of the eye movements | long-term toxic effects [4]: atrophy of the orbital fat and connective tissue
